# Reference: ChEMBL document CHEMBL1201862, “PubChem BioAssay data set” (2004)
#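 Exposure lasted 48 hours, with cells grown in 96-well plates and compounds tested at five concentrations. The concentration for 50% growth inhibition is given as GI50.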 Active and inactive are the calls of the source. Rule as the data show it: active = GI50 up to about 1.1 µM and inactive = higher.
# Experiments:
# Assay in all cases: NCI-60 cell line screen, 48 h
# [1] = system: ACHN
# [2] = system: NCI-H23
# [3] = system: MOLT-4
# [4] = system: LXFL 529
# [5] = system: HT-29
# [6] = system: OVCAR-8
# [7] = system: KM12
# [8] = system: HOP-92
# [9] = system: M14
# [10] = system: M19-MEL
# [11] = system: A549
# [12] = system: NCI-H226
# [13] = system: HL-60
# [14] = system: SNB-19
# [15] = system: NCI-H460
# [16] = system: SK-MEL-5
# [17] = system: SK-MEL-2
# [18] = system: SR
# [19] = system: U-251
# [20] = system: LOX IMVI
# [21] = system: Malme-3M
# [22] = system: COLO 205
# [23] = system: HOP-62
# [24] = system: OVCAR-3
# [25] = system: DLD-1
# [26] = system: HCT-15
# [27] = system: SNB-78
# [28] = system: HCT-116
# [29] = system: K562
# [30] = system: DMS-273
# [31] = system: EKVX
# [32] = system: CCRF-CEM
# [33] = system: OVCAR-5
# [34] = system: SNB-75
# [35] = system: SN12C
# [36] = system: HOP-18
# [37] = system: SK-MEL-28
# [38] = system: HCC 2998
# [39] = system: KM-20L2
# [40] = system: UO-31
# [41] = system: TK-10
# [42] = system: RXF 393
# [43] = system: SF-539
# [44] = system: IGROV-1
# [45] = system: SK-OV-3
# [46] = system: SW-620
# [47] = system: 786-0
# [48] = system: CAKI-1
# [49] = system: UACC-62
# [50] = system: SF-295
# [51] = system: NCI-H522
# [52] = system: DMS-114
# [53] = system: RPMI-8226
compound,measurement,setting,value
[N-]=[N+]=NC(c1cn(C2CC(O)C(CO)O2)c(=O)[nH]c1=O)C(Br)Br (stereo not drawn),GI50,[1],> 100 µM (inactive)
same,GI50,[2],> 100 µM (inactive)
same,GI50,[3],> 100 µM (inactive)
same,GI50,[4],> 100 µM (inactive)
same,GI50,[5],> 100 µM (inactive)
same,GI50,[6],> 100 µM (inactive)
same,GI50,[7],> 100 µM (inactive)
same,GI50,[8],> 100 µM (inactive)
same,GI50,[9],> 100 µM (inactive)
same,GI50,[10],> 100 µM (inactive)
same,GI50,[11],> 100 µM (inactive)
same,GI50,[12],> 100 µM (inactive)
same,GI50,[13],> 100 µM (inactive)
same,GI50,[14],> 100 µM (inactive)
same,GI50,[15],> 100 µM (inactive)
same,GI50,[16],> 100 µM (inactive)
same,GI50,[17],> 100 µM (inactive)
same,GI50,[18],> 100 µM (inactive)
same,GI50,[19],> 100 µM (inactive)
same,GI50,[20],> 100 µM (inactive)
same,GI50,[21],> 100 µM (inactive)
same,GI50,[22],> 100 µM (inactive)
same,GI50,[23],> 100 µM (inactive)
same,GI50,[24],> 100 µM (inactive)
same,GI50,[25],> 100 µM (inactive)
same,GI50,[26],> 100 µM
same,GI50,[27],> 100 µM (inactive)
same,GI50,[28],> 100 µM (inactive)
same,GI50,[29],> 100 µM (inactive)
same,GI50,[30],> 100 µM (inactive)
same,GI50,[31],> 100 µM (inactive)
same,GI50,[32],> 100 µM (inactive)
same,GI50,[33],> 100 µM (inactive)
same,GI50,[34],> 100 µM (inactive)
same,GI50,[35],> 100 µM (inactive)
same,GI50,[36],> 100 µM (inactive)
same,GI50,[37],> 100 µM (inactive)
same,GI50,[38],> 100 µM (inactive)
same,GI50,[39],> 100 µM (inactive)
same,GI50,[40],> 100 µM (inactive)
same,GI50,[41],> 100 µM (inactive)
same,GI50,[42],> 100 µM (inactive)
same,GI50,[43],> 100 µM (inactive)
same,GI50,[44],> 100 µM (inactive)
same,GI50,[45],> 100 µM (inactive)
same,GI50,[46],> 100 µM (inactive)
same,GI50,[47],> 100 µM (inactive)
same,GI50,[48],> 100 µM (inactive)
same,GI50,[49],> 100 µM (inactive)
same,GI50,[50],> 100 µM (inactive)
same,GI50,[51],> 100 µM (inactive)
same,GI50,[52],> 100 µM (inactive)
same,GI50,[53],> 100 µM (inactive)
